What all share (design): species or system Spodoptera litura
For assay [1], the system named is EcR-DF/USP-AE complex. As to the kind of experiment: Screening system: inhibition of [3H]ponasterone A binding to the complex by test compounds. The conditions noted are these: for inhibition of the binding of [3H]ponasterone A to the complex: concentration of test compound changed, FIG. 24; for activity of binding to the complex: test compound 10,000 times stronger than [3H]ponasterone A; for activity of binding to the EcR-DF/USP-AE complex: endocrine disrupters and female hormone, FIG. 25. How it is done:
In Example 7, a screening system used for screening an insect inhibitor was constructed based on the results of Examples 1 to 6. As described in Examples 1 to 6, when binding analysis was carried out using ponasterone A as an ecdysone agonist, ponasterone A binding to a complex consisting of EcR-DF and USP-AE was observed. In order to confirm whether or not this system functions as a screening system, the binding of the complex to other ecdysone agonists should also be observed. Thus, using 20-hydroxyecdysone that is an ecdysone active in living insect bodies and tebufenozide (RH-5992) that is a synthetic ecdysone agonist, the binding experiment was carried out between the […] and each of the above compounds.
First, EcR-DF and USP-AE were mixed into a binding buffer, and [^3H]ponasterone A was then added thereto in the same manner as in Example 4. Also, the same experiment was carried out with the exception that 20-hydroxyecdysone or tebufenozide that was 10,000 times stronger than [^3H]ponasterone A was added thereto, so as to obtain nonspecific binding. […] Thus, the same experiment was carried out while the concentration of 20-hydroxyecdysone or tebufenozide was changed.
Subsequently, in the present example, using a screening system in which ability to bind to the EcR-DF/USP-AE complex is used as an index, 4 types of compounds were evaluated in terms of such binding ability. As compounds to be evaluated, 4-nonylphenol, stilbestrol, and diethyl phthalate (endocrine disrupters), and estradiol-17β (female hormone) were used.

The subject of another assay is EcR or USP (single use). As to the kind of experiment: [3H]ponasterone A binding experiment, charcoal dextran method, single use of EcR or USP recombinant. The conditions noted are these: regardless of length, FIG. 16. An excerpt: (§1) In Example 4, in order to separate a binding form from a free form, the charcoal dextran method was applied. This is a common method applied when a steroid hormone is used as a ligand. By adding an activated carbon solution coated with dextran to a reaction solution when the reaction is terminated, a ligand that has not bound to a receptor is adsorbed on the activated carbon. Thereafter, the reaction solution is centrifuged, thereby separating an activated carbon fraction (precipitate fraction) from a supernatant fraction in which a receptor/ligand complex exists.
In order to prevent the non-specific binding of ponasterone A to a receptor (a complex consisting of an EcR recombinant and a USP recombinant), 1% BSA was first added to a binding buffer (20 mM HEPES (pH7.4)/5 mM DTT/1 nM PMSF). […] Thereafter, [^3H]ponasterone A ([24, 25, 26, 27-3H] Ponasterone A (American Radiolabeled Chemicals Inc.)) with a final concentration of 1.37 nM was further added thereto. The obtained mixture was reacted at 25° C. 40 minutes later, the reaction was terminated by addition of 200 μl of an activated carbon solution (0.5% Charcoal, dextran coated (SIGMA)/20 mm HEPES/50 mM NaCl). A supernatant fraction obtained after centrifugation was mixed with a liquid scintillator, and the radioactivity (DPM) of the obtained mixture was measured using a liquid scintillation counter (ALOKA LSC-5100). […]

Assay [2] concerns complex consisting of EcR-DF and USP-DE. As to the kind of experiment: [3H]ponasterone A binding experiment, charcoal dextran method, recombinants expressed in Escherichia coli. The conditions noted are these: E. coli-expressed recombinants; 1.37 nM [3H]ponasterone A, 25° C., 40 minutes; FIG. 16.
Excerpt: as §1
In order to prevent the non-specific binding of ponasterone A to a receptor (a complex consisting of an EcR recombinant and a USP recombinant), 1% BSA was first added to a binding buffer (20 mM HEPES (pH7.4)/5 mM DTT/1 nM PMSF). Thereafter, USP-AE or USP-DE was mixed with the EcR-AF, EcR-DF, EcR-DE, EcR-EF, or EcR-E, purified in Example 2. Thereafter, [^3H]ponasterone A ([24, 25, 26, 27-3H] Ponasterone A (American Radiolabeled Chemicals Inc.)) with a final concentration of 1.37 nM was further added thereto. The obtained mixture was reacted at 25° C. […] A supernatant fraction obtained after centrifugation was mixed with a liquid scintillator, and the radioactivity (DPM) of the obtained mixture was measured using a liquid scintillation counter (ALOKA LSC-5100). […]

The test system of assay [3] is EcR-AF combined with USP-AE or USP-DE. As to the kind of experiment: [3H]ponasterone A binding experiment with full-length EcR recombinant. As to the method:
Each expression plasmid DNA was independently introduced into COS-7 cells. 48 hours later, each extract was prepared from the cells. In addition, plasmid DNA into which EcR-AF had been inserted and plasmid DNA into which USP-AE had been inserted were co-introduced into COS-7 cells, and an extract was then prepared in the same manner. Moreover, plasmid DNA into which, EcR-DF had been inserted and plasmid DNA into which USP-AE had been inserted were co-introduced into COS-7 cells, and an extract was then prepared in the same manner. Furthermore, plasmid DNA into which EcR-AF had been inserted and plasmid DNA into which USP-DE had been inserted were co-introduced into COS-7 cells, and an extract was then prepared in the same manner. Further, plasmid DNA into which EcR-DF had been inserted and plasmid DNA into which USP-DE had been inserted were co-introduced into COS-7 cells, and an extract was then prepared in the same manner. […]
In order to prevent the non-specific binding of ponasterone A to a receptor (a complex consisting of an EcR recombinant and a USP recombinant), 1% BSA was first added to a binding buffer (20 mM HEPES (pH7.4)/5 mM DTT/1 nM PMSF). […] A supernatant fraction obtained after centrifugation was mixed with a liquid scintillator, and the radioactivity (DPM) of the obtained mixture was measured using a liquid scintillation counter (ALOKA LSC-5100). […]

For assay [4], the target named is EcR-DF/USP-AE complex. As to the kind of experiment: Scatchard analysis of binding of complex to [3H]ponasterone A. The conditions noted are these: EcR-DF:USP-AE 1:1, FIG. 23, read-out: dissociation constant (Kd). How it is done:
In Example 6, using EcR-DF and USP-AE, the dissociation constant (Kd) of the complex to ponasterone A was obtained as follows. First, EcR-DF was mixed with USP-AE at a molar ratio of 1:1, and [^3H]ponasterone A with various concentrations was then added to the mixture. An activated carbon solution was added to the reaction solution to eliminate free ligands. The amount of the EcR-DF/USP-AE complex binding to [^3H]ponasterone A (total binding amount) was obtained by measuring the radioactivity of a supernatant fraction obtained after centrifugation. Moreover, the same experiment was carried out with the exception that nonradioactive ponasterone A that was 10,000 times stronger than [^3H]ponasterone A was added, so as to obtained non-specific binding. In FIG. 23, the horizontal axis indicates the specific bound amount of [^3H]ponasterone A (nM), the vertical axis indicates specific binding amount (bound)/total binding amount-specific binding amount (free).

The subject of assay [5] is complex consisting of EcR-DF and USP-AE. As to the kind of experiment: [3H]ponasterone A binding experiment, charcoal dextran method, recombinants expressed in Escherichia coli.
Excerpt: as §1
(§2) In order to prevent the non-specific binding of ponasterone A to a receptor (a complex consisting of an EcR recombinant and a USP recombinant), 1% BSA was first added to a binding buffer (20 mM HEPES (pH7.4)/5 mM DTT/1 nM PMSF). Thereafter, USP-AE or USP-DE was mixed with the EcR-AF, EcR-DF, EcR-DE, EcR-EF, or EcR-E, purified in Example 2. Thereafter, [^3H]ponasterone A ([24, 25, 26, 27-3H] Ponasterone A (American Radiolabeled Chemicals Inc.)) with a final concentration of 1.37 nM was further added thereto. The obtained mixture was reacted at 25° C. 40 minutes later, the reaction was terminated by addition of 200 μl of an activated carbon solution (0.5% Charcoal, dextran coated (SIGMA)/20 mm HEPES/50 mM NaCl). A supernatant fraction obtained after centrifugation was mixed with a liquid scintillator, and the radioactivity (DPM) of the obtained mixture was measured using a liquid scintillation counter (ALOKA LSC-5100). The obtained measurement value was defined as the total binding amount. Moreover, the same experiment was carried out with the exception that nonradioactive ponasterone A that was 10,000 times stronger than [^3H]ponasterone A was added. Then, the amount of a ligand non-specifically binding to a receptor was obtained. The amount of a ligand specifically binding to a receptor was defined as a value obtained by subtracting the non-specific binding amount from the total binding amount.
The optimal reaction time for a binding reaction between a complex consisting of EcR-DF and USP-AE and a ligand was analyzed as follows. First, USP-AE with various types of concentrations was added to a certain amount of EcR-DF, and the obtained mixture was then reacted at 25° C. for 40 minutes in a water bath. The concentration of ponasterone A in the reaction solution was set at 1.34 nM. […]
The optimal reaction time for a binding reaction between a complex consisting of EcR-DF and USP-AE and a ligand was analyzed as follows. […]
The optimal reaction temperature for a binding reaction between a complex consisting of EcR-DF and USP-AE and a ligand was analyzed as follows. […]

The subject of the next assay is EcR-DF and USP-DE. As to the kind of experiment: [3H]ponasterone A binding experiment using COS-7 cell extracts. As to the method:
(§3) Each expression plasmid DNA was independently introduced into COS-7 cells. 48 hours later, each extract was prepared from the cells. In addition, plasmid DNA into which EcR-AF had been inserted and plasmid DNA into which USP-AE had been inserted were co-introduced into COS-7 cells, and an extract was then prepared in the same manner. Moreover, plasmid DNA into which, EcR-DF had been inserted and plasmid DNA into which USP-AE had been inserted were co-introduced into COS-7 cells, and an extract was then prepared in the same manner. Furthermore, plasmid DNA into which EcR-AF had been inserted and plasmid DNA into which USP-DE had been inserted were co-introduced into COS-7 cells, and an extract was then prepared in the same manner. Further, plasmid DNA into which EcR-DF had been inserted and plasmid DNA into which USP-DE had been inserted were co-introduced into COS-7 cells, and an extract was then prepared in the same manner. The expression of a product of interest in the COS-7 cells was confirmed by Western blotting using an anti-FLAG antibody.
(§4) By the aforementioned operations, 4 types of extracts containing each of EcR-AF, EcR-DF, USP-AE, and USP-DE, an extract containing the coexpressed EcR-AF and USP-AE, an extract containing the coexpressed EcR-DF and USP-AE, an extract containing the coexpressed EcR-AF and USP-DE, and an extract containing the coexpressed EcR-DF and USP-DE, were prepared.
as §2, with “The amount of a ligand specifically binding to a receptor was defined as a value obtained by subtracting the non-specific binding amount from the total binding amount.” left out

Another assay concerns EcR-DF and USP-AE. Described as above. As to the method: as §3, §4
as §2, with “The amount of a ligand specifically binding to a receptor was defined as a value obtained by subtracting the non-specific binding amount from the total binding amount.” left out

The mark [6] stands for this setting: coexpressed in COS-7 cells, FIG. 17 lanes 7 and 8.
[7] abbreviates: singly expressed in COS-7 cells, then mixed, FIG. 17 lanes 3 and 4.

Molecules are shown by their SMILES. Entries after “also recorded” stand apart in the source; their conditions may differ.

Usually Kd stands for the equilibrium constant for the complex coming apart.

In the case of `CCc1ccc(C(=O)NN(C(=O)c2cc(C)cc(C)c2)C(C)(C)C)cc1` [tebufenozide], in the assay on EcR-DF/USP-AE complex [1], the “inhibition of the binding of [3H]ponasterone A to the complex” value is reported as “concentration-dependently inhibit” and the “activity of binding to the complex” value was “exhibited activity of binding”.
Regarding `C[C@]12CC[C@@H]3c4ccc(O)cc4CC[C@H]3[C@@H]1CC[C@@H]2O` [estradiol-17β], the “activity of binding to the EcR-DF/USP-AE complex” value in the assay on EcR-DF/USP-AE complex [1] was “exhibited activity of binding”.
In the case of `CC(C)CC[C@@H](O)[C@](C)(O)[C@H]1CC[C@@]2(O)C3=CC(=O)[C@@H]4C[C@@H](O)[C@@H](O)C[C@]4(C)[C@H]3CC[C@]12C` [ponasterone A], in the assay on EcR or USP (single use), the “specific binding of [3H]ponasterone A” value is recorded as “no specific bindings were observed”. In addition, the “ability to bind to a ligand (specific binding of [3H]ponasterone A)” value in assay [2] was “had ability to bind”; in assay [5] (E. coli-expressed recombinants, 1.37 nM [3H]ponasterone A, 25° C., 40 minutes, FIG. 16), “had ability to bind”. Moreover, the “binding to a ligand (ponasterone A)” value is given as “no bindings to a ligand were observed” in assay [3] (COS-7 extracts, coexpression and mixing after single expression, FIG. 17); “a strong binding to a ligand was observed” with EcR-DF and USP-DE (setting [6]); “no such bindings were observed” in the assay on EcR-DF and USP-DE (setting [7]); “a strong binding to a ligand was observed” in the assay on EcR-DF and USP-AE (setting [6]); “no such bindings were observed” in the assay with EcR-DF and USP-AE (setting [7]). Further, in assay [3] (both Escherichia coli and mammalian cell expression systems), the “binding of the full-length EcR recombinant (EcR-AF) to ponasterone A” value is listed as “extremely weak”. Moreover, the Kd at EcR-DF/USP-AE complex [4] amounted to 2.79 nM. Also, the “time necessary for saturation of the binding” value is 60 min in assay [5] (25° C., 1.34 nM ponasterone A, EcR-DF:USP-AE 1:1) and 480 min in assay [5] (low-temperature chamber at 4° C.). In assay [5] (NaCl 0, 50, 100, 300, 500 mM, 25° C., FIG. 21), the “effect of salt (NaCl) concentration on specific binding of ligand to the complex” value is “as the salt concentration increased, the specific binding of a ligand to the above complex decreased”.
Turning to `CC/C(=C(/CC)c1ccc(O)cc1)c1ccc(O)cc1` [stilbestrol], the “activity of binding to the EcR-DF/USP-AE complex” value in the assay with EcR-DF/USP-AE complex [1] was “exhibited activity of binding; also recorded: exhibited strong binding activity”.
For `CC(C)(O)CC[C@@H](O)[C@](C)(O)[C@H]1CC[C@@]2(O)C3=CC(=O)[C@@H]4C[C@@H](O)[C@@H](O)C[C@]4(C)[C@H]3CC[C@]12C` [20-hydroxyecdysone], in the assay on EcR-DF/USP-AE complex [1], the “inhibition of the binding of [3H]ponasterone A to the complex” value is reported as “concentration-dependently inhibit” and the “activity of binding to the complex” value was “exhibited activity of binding”.
On to `CCCCCCCCCc1ccc(O)cc1` [4-nonylphenol], for which, in the assay on EcR-DF/USP-AE complex [1], the “activity of binding to the EcR-DF/USP-AE complex” value is reported as “exhibited activity of binding; also recorded: exhibited strong binding activity”.

The record behind these values is patent publication US7422863B2, “Molting hormone receptor and method for screening ligand to the receptor” (Kumiai Chemical Industry Co., Ltd., priority 2003, dated 2008).
